Data on one molecule can be found in patent publication US20060069038A1, “Irreversible caspase-3 inhibitors as active site probes” (priority 2003, published 2006).

This assay relates to active caspases. The assay can be described thus: In vivo labeling of active caspases with [125I]-M808 in CLP-operated mice (thymi extracts). The conditions noted are these: i.v. injection in CLP mice, radiolabeled p17 in thymi, FIG. 6. Further details: species or system mouse. As to the method: FIG. 6. A-Schematic representation of in vivo labeling of active caspases with [^125I]-M808 in CLP-operated mice. Mice underwent either sham surgery (n=2) or CLP surgery (n=5). [^125I]-M808 was injected intravenously 23.15 h later, and animals were euthanized 24 h post-surgery. B-Caspase-3 western blot of mouse thymi extracts following CLP and administration of [^125I]-M808. Arrows indicate full length pro-caspase-3 (p32) and the processed caspase large subunit (p17). C— in-vivo [^125I]-M808-labeled protein in thymi extracts from septic mice. Arrow points to a radiolabeled caspase large subunit.
Female Sprague-Dawley rats (250-300 g; Charles River, St-Constant, Qc, Canada) and ND4 mice (20-25 g Harlane Sprague-Dawley) were housed in a 12 hour light/dark cycle with free access to food and water. All procedures were carried out under appropriate Animal Care Committee approval in strict accordance to Merck and Co. animal care policies. For Cecal Ligation and Perforation, animals were anesthetized with 2.5% isoflurane and body temperature maintained by use of a thermoregulated heated blanket. A midline incision was made in the abdominal wall of the animal and the cecum exteriorized. The cecum was ligated with a nylon (4-0) suture proximal to the ileocecal valve. In mice, perforation of the cecum was done using a 23 g needle passed through the distal portion of the cecum. […]

As to `COc1ccc(I)cc1CC(=O)N[C@H](C(=O)NC(CC(=O)O)C(=O)CF)C(C)C` (stereo partly drawn) [[^125I]-M808, 5-fluoro-3-({N-[(5-iodo-2-methoxyphenyl)acetyl]-L-valyl}amino)-4-oxopentanoic acid], the “detection of active caspases in vivo” value was “can detect active caspases in vivo”.
